According to patent US20240132525A1, “BORON […], CO[…], METHODS AND USES THEREOF” (priority 2022, published 2024):
Where two headings read alike, the source gives them in different places.

How the values were obtained:
[1] = Dog LM (liver microsome) assay; format: in vitro ADME; conditions: Table 3a; predicted clearance as percent of liver blood flow, 1 μM, 1 mg/ml microsomal protein
Protocol: Dog LM (Liver Microsome) Assay
The metabolic degradation of the test compound is assayed at 37° C. with pooled liver microsomes from dogs (Beagle). The final incubation volume of 100 μl per time point contains TRIS buffer pH 7.6 at RT (0.1 M), magnesium chloride (5 mM), microsomal protein (1 mg/ml) and the test compound at a final concentration of 1 μM. Following a short preincubation period at 37° C., the reactions were initiated by addition of beta-nicotinamide adenine dinucleotide phosphate, reduced form (NADPH, 1 mM) and terminated by transferring an aliquot into solvent after different time points. Additionally, the NADPH-independent degradation was monitored in incubations without NADPH, terminated at the last time point. The [%] remaining test compound after NADPH independent incubation is reflected by the parameter c (control) (metabolic stability). The quenched incubations are pelleted by centrifugation (10000 g, 5 min). An aliquot of the supernatant is assayed by LC-MS/MS for the amount of parent compound. The half-life (t½ INVITRO) is determined by the slope of the semilogarithmic plot of the concentration-time profile. The intrinsic clearance (CL_[…]) is calculated by considering the amount of protein in the incubation: CL_[…] [μl/min/mg protein]=(Ln 2/(half-life [min]*protein content [mg/ml]))*1000. For better across species comparison the predicted clearance is expressed as percent of the liver blood flow [% QH] in the individual species. In general, high stability (corresponding to low % QH) of the compounds across species is desired.

JAK1 = JAK1 (Homo sapiens (Human), UniProt P23458); test: Biochemical kinase assay (33P-ATP filter-binding), JAK1
Chain of JAK1 (P23458 whole entry, species assumed): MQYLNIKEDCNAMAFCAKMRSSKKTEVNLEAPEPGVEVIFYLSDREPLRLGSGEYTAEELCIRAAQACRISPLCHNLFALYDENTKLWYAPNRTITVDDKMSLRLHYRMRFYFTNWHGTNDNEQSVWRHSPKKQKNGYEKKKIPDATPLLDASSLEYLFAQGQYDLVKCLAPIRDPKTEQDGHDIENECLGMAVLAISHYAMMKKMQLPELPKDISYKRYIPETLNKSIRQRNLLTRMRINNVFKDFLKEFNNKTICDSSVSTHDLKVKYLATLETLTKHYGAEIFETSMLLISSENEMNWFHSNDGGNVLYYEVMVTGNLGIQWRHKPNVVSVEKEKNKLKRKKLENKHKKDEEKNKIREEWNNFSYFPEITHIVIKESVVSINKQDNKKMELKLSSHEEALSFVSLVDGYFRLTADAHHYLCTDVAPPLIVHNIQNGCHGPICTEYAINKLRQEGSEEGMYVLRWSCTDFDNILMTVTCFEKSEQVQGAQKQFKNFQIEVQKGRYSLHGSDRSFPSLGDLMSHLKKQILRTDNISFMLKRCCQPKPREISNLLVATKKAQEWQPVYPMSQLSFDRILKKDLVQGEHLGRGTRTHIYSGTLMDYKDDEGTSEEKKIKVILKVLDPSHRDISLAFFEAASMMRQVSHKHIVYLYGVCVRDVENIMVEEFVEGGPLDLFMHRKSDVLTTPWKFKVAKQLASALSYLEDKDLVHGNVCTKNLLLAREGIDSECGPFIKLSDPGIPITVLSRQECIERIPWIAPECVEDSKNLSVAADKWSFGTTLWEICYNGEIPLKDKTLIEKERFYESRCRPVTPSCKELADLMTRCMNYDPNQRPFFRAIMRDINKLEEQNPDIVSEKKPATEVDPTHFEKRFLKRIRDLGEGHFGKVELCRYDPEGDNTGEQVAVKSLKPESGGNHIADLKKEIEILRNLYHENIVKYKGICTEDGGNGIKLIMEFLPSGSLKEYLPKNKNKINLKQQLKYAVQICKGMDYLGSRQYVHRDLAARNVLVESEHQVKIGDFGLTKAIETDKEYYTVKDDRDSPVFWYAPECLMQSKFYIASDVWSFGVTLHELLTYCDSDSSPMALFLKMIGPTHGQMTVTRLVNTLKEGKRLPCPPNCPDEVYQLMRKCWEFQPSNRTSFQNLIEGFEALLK
Excerpt: (§1) Biochemical Kinase Assay Protocol (JAK)
(§2) Reaction Procedure: • 1. […] Detected kinase activity by filter-binding method.

JAK2 = JAK2 (Homo sapiens (Human), UniProt O60674); test: Biochemical kinase assay (33P-ATP filter-binding), JAK2
Chain of JAK2 (O60674 whole entry, species assumed): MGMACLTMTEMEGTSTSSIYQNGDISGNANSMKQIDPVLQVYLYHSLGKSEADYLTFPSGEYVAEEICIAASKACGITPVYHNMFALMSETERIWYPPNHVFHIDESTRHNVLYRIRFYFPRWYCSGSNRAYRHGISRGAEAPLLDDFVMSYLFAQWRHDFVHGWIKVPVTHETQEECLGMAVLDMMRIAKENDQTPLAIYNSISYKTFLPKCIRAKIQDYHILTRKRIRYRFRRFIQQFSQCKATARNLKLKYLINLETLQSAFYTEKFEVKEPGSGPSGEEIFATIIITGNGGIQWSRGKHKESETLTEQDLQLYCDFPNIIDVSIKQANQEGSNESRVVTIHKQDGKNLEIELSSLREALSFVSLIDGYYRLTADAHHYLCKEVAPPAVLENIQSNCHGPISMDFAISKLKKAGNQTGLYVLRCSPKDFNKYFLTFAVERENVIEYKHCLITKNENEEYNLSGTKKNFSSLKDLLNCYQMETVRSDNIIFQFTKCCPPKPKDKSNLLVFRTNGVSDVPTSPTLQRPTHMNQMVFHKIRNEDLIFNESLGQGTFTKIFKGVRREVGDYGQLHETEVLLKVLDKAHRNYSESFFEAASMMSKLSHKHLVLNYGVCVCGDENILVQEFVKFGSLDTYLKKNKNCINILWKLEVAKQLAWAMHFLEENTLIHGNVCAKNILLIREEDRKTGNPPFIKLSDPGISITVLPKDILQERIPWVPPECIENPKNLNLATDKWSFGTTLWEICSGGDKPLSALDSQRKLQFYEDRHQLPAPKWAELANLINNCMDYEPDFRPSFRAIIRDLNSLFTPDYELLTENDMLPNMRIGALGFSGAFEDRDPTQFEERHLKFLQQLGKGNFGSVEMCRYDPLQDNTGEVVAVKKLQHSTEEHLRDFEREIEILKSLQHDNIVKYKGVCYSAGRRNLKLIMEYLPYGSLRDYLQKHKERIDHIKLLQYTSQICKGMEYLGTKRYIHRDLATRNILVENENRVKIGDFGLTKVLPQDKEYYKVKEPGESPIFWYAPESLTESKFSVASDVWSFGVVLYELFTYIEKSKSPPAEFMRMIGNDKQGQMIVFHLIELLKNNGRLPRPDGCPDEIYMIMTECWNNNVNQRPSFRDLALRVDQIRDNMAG
Excerpt: as §1, §2

Row | Structure (SMILES) | Dog LM QH [1] [%] | IC50 (JAK1; Table 3a, read-out: IC50 JAK1) [nM] | IC50 (JAK2; Table 3a, read-out: IC50 JAK2) [nM] | IC50 (JAK1; IC50 JAK1, Table 3a) [nM] | IC50 (JAK2; IC50 JAK2, Table 3a) [nM]
1 | Cc1cnc(Nc2ccc3c(c2)OB(O)C=C3)nc1N[C@@H]1COCC[C@H]1C#N (relative stereo) [Example 034, (trans)-3-[[2-[(2-hydroxy-1,2-benzoxaborinin-7-yl)amino]-5-methyl-pyrimidin-4-yl]amino]tetrahydropyran-4-carbonitrile] | 74.7 | 1.1 | 33.7 | – | –
2 | Cc1cnc(Nc2cc3c(c(C(F)(F)F)c2)B(O)OC3)nc1N[C@H]1CCCC[C@@H]1C#N (single isomer, unassigned) [Example 011b, (trans)-2-((2-((1-hydroxy-7-(trifluoromethyl)-1,3-dihydrobenzo[c][1,2]oxaborol-5-yl)amino)-5-methylpyrimidin-4-yl)amino)cyclohexane-1-carbonitrile] | <19.9 | 10 | 197 | – | –
3 | Cc1cnc(Nc2cc(C#N)c3c(c2)COB3O)nc1N[C@H]1CCCC[C@@H]1C#N (single isomer, unassigned) [Example 012a, 5-((4-(((trans)-2-cyanocyclohexyl)amino)-5-methylpyrimidin-2-yl)amino)-1-hydroxy-1,3-dihydrobenzo[c][1,2]oxaborole-7-carbonitrile] | <19.9 | 0.6 | 2.4 | – | –
4 | Cc1cnc(Nc2cc(C#N)c3c(c2)COB3O)nc1N[C@H]1CCCC[C@@H]1C#N (single isomer, unassigned) [Example 012b, 5-((4-(((trans)-2-cyanocyclohexyl)amino)-5-methylpyrimidin-2-yl)amino)-1-hydroxy-1,3-dihydrobenzo[c][1,2]oxaborole-7-carbonitrile] | <19.9 | 8.2 | 126 | – | –
5 | Cc1cnc(Nc2ccc3c(c2)COB3O)nc1N[C@@H]1COCC[C@H]1C#N (single isomer, unassigned) [Example 026b, (trans)-3-((2-((1-hydroxy-1,3-dihydrobenzo[c][1,2]oxaborol-5-yl)amino)-5-methylpyrimidin-4-yl)amino)tetrahydro-2H-pyran-4-carbonitrile] | <19.9 | 47.1 | 95.3 | – | –
6 | Cc1cnc(Nc2cc(F)c3c(c2)COB3O)nc1N[C@@H]1COCC[C@H]1C#N (single isomer, unassigned) [Example 029b, (trans)-3-[[2-[(7-fluoro-1-hydroxy-3H-2,1-benzoxaborol-5-yl)amino]-5-methyl-pyrimidin-4-yl]amino]tetrahydropyran-4-carbonitrile] | <19.9 | 4 | 89.8 | – | –
7 | Cc1cnc(Nc2cc3c(c(C(F)(F)F)c2)B(O)OC3)nc1N[C@@H]1COCC[C@H]1C#N (single isomer, unassigned) [Example 033b, (trans)-3-[[2-[[1-hydroxy-7-(trifluoromethyl)-3H-2,1-benzoxaborol-5-yl]amino]-5-methyl-pyrimidin-4-yl]amino]tetrahydropyran-4-carbonitrile] | 64.9 | 16.3 | 389 | – | –
8 | Cc1cnc(Nc2cc(F)c3c(c2)C=CB(O)O3)nc1N[C@@H]1COCC[C@H]1C#N (single isomer, unassigned) [Example 036b, (trans)-3-((2-((8-fluoro-2-hydroxy-2H-benzo[e][1,2]oxaborinin-6-yl)amino)-5-methylpyrimidin-4-yl)amino)tetrahydro-2H-pyran-4-carbonitrile] | 37.3 | 8.2 | 102 | – | –
9 | Cc1cnc(Nc2ccc3c(c2)C(C(C)C)=CB(O)O3)nc1N[C@H]1COCC[C@@H]1C#N (single isomer, unassigned) [Example 039b, (trans)-3-((2-((2-hydroxy-4-isopropyl-2H-benzo[e][1,2]oxaborinin-6-yl)amino)-5-methylpyrimidin-4-yl)amino)tetrahydro-2H-pyran-4-carbonitrile] | 72.1 | 216 | 2040 | – | –
10 | Cc1cnc(Nc2cc(Cl)c3c(c2)C(C(C)C)=CB(O)O3)nc1N[C@H]1COCC[C@@H]1C#N (single isomer, unassigned) [Example 040a, (trans)-3-((2-((8-chloro-2-hydroxy-4-isopropyl-2H-benzo[e][1,2]oxaborinin-6-yl)amino)-5-methylpyrimidin-4-yl)amino)tetrahydro-2H-pyran-4-carbonitrile] | 32.9 | > 1000 | > 1000 | – | –
11 | Cc1cc(Nc2ncc(Cl)c(N[C@H]3COCC[C@@H]3C#N)n2)cc2c1B(O)OC2 (single isomer, unassigned) [Example 041b, (trans)-3-[[5-chloro-2-[(1-hydroxy-7-methyl-3H-2,1-benzoxaborol-5-yl)amino]pyrimidin-4-yl]amino]tetrahydropyran-4-carbonitrile] | <19.9 | – | – | 36.2 | 134
12 | N#C[C@H]1CCOC[C@@H]1Nc1nc(Nc2cc3c(c(C(F)(F)F)c2)B(O)OC3)ncc1Cl (single isomer, unassigned) [Example 042b, (trans)-3-((5-chloro-2-((1-hydroxy-7-(trifluoromethyl)-1,3-dihydrobenzo[c][1,2]oxaborol-5-yl)amino)pyrimidin-4-yl)amino)tetrahydro-2H-pyran-4-carbonitrile] | <19.9 | 98.2 | 690 | – | –
13 | Cc1cnc(Nc2cc3c(c(C(F)(F)F)c2)B(O)OC3)nc1N[C@H]1COC[C@@H]1C#N (single isomer, unassigned) [Example 043b, (trans)-4-[[2-[[1-hydroxy-7-(trifluoromethyl)-3H-2,1-benzoxaborol-5-yl]amino]-5-methyl-pyrimidin-4-yl]amino]tetrahydrofuran-3-carbonitrile] | <19.9 | 7.6 | 298 | – | –
14 | COc1cc(Nc2ncc(C)c(N[C@H]3COCC[C@@H]3C#N)n2)cc2c1B(O)OC2 (single isomer, unassigned) [Example 044a, (trans)-3-((2-((1-hydroxy-7-methoxy-1,3-dihydrobenzo[c][1,2]oxaborol-5-yl)amino)-5-methylpyrimidin-4-yl)amino)tetrahydro-2H-pyran-4-carbonitrile] | 34.9 | 0.2 | 0.8 | – | –
15 | COc1cc(Nc2ncc(C)c(N[C@H]3COCC[C@@H]3C#N)n2)cc2c1B(O)OC2 (single isomer, unassigned) [Example 044b, (trans)-3-((2-((1-hydroxy-7-methoxy-1,3-dihydrobenzo[c][1,2]oxaborol-5-yl)amino)-5-methylpyrimidin-4-yl)amino)tetrahydro-2H-pyran-4-carbonitrile] | <19.9 | 33.8 | 96.8 | – | –
16 | Cc1cnc(Nc2cc(Cl)c3c(c2)COB3O)nc1N[C@@H]1CCCOC1 [Example 030a] | <19.9 | 51.1 | 868 | – | –
17 | CC1=Cc2cc(Nc3ncc(C)c(NC4COCCC4C#N)n3)ccc2OB1O (stereo not drawn) [Example 038, 3-[[2-[(2-hydroxy-3-methyl-1,2-benzoxaborinin-6-yl)amino]-5-methyl-pyrimidin-4-yl]amino]tetrahydropyran-4-carbonitrile] | 50.4 | 1.4 | 23.7 | – | –
